Among the data in patent US20250082633A1, “COMPOUNDS AND METHODS FOR MODULATING SPLICING” (REMIX THERAPEUTICS INC., priority 2021, published 2025) are IC50, AC50 and GI50 values, retold here.

For assay [1], the system named is MYB mRNA. Briefly: RT-qPCR splicing assay, MYB canonical (CJ) and alternative (AJ) junction mRNA. It counts as cell-based. To be noted: Homo sapiens; for IC50: read-out: MYB CJ IC50; for AC50: read-out: MYB AJ AC50. In a few lines: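 Splice-junction mRNAs (CJ, AJ) measured by TaqMan one-step RT-qPCR on cell lysates, using PPIA as reference for adherent A673 and GAPDH or GUSB for K562. Cells exposed for 24 h to 11 threefold concentrations up to 10 uM final, with DMSO at or below 0.25%.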

Assay [2] concerns K562 cells. Briefly: Cell Titer Glo 2.0 cell viability assay. To be noted: Homo sapiens, 500 cells/well, 72 hours. The assay is classed as cell-based. In a few lines:
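K562 cells (500/well) in IMDM with 10% FBS were exposed to serially diluted compounds at 0.1% DMSO final. After 72 h at 37° C, 5% CO2, viability was read by CellTiter-Glo 2.0 luminescence, with medium-only blanks.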

Setting [3] is: decrease in CJ mRNA levels, larger panel of genes, Table 3.
[4] abbreviates: decrease in canonical junction mRNA, A673 or K562 cells, 24 hours treatment, Table 2.
Setting [5] is: increase in alternative junction mRNA, A673 or K562 cells, 24 hours treatment, Table 2.

Counter-ions that a name gives are not always drawn. Like-named read-outs stand apart in the source and are kept apart here.

Take `Cc1cn2cc(-c3cc(F)c4nn(C5CCNCC5)cc4c3)cc(F)c2n1` [Compound 129, 7-fluoro-5-(8-fluoro-2-methylimidazo[1,2-a]pyridin-6-yl)-2-(piperidin-4-yl)-2H-indazole]: the IC50 in assay [1] (setting [3]) and in assay [1] (setting [4]) was 100 to 1000 nM each time. Moreover, the AC50 in assay [1] (setting [5]) was 100 to 1000 nM. Also, the concentration for 50% growth inhibition (GI50) in assay [2] was 100 to 1000 nM.

Regarding `Cc1cn2nc(-c3cc(F)c4nn([C@H]5CCNC6(CC6)C5)cc4c3)cc(C)c2n1` [Compound 172], the IC50 in assay [1] (setting [3]) and in assay [1] (setting [4]) was < 100 nM in each case. In addition, the AC50 in assay [1] (setting [5]) was < 100 nM. This compound gave a GI50 in assay [2] of 100 to 1000 nM.

On to `Fc1cc(-c2ccc3ccncc3c2)cc2cn(C3CCNCC3)nc12` [Compound 158, 7-[7-fluoro-2-(4-piperidyl)indazol-5-yl]isoquinoline], for which the IC50 in assay [1] (setting [3]) and in assay [1] (setting [4]) was > 10000 nM in each case. Further, in assay [1] (setting [5]), the AC50 is > 10000 nM. The compound also returned a GI50 in assay [2] of 1000 to 10000 nM.

Consider `Cc1cn2nc(-c3cc(F)c4nn(C5CCN(C)C6(CC6)C5)cc4c3)cc(C)c2n1` (stereo not drawn) [Compound 174, 6-[7-fluoro-2-(4-methyl-4-azaspiro[2.5]octan-7-yl)indazol-5-yl]-2,8-dimethyl-imidazo[1,2-b]pyridazine], for which the IC50 in assay [1] (setting [3]) and in assay [1] (setting [4]) was 100 to 1000 nM each time. Also, the AC50 in assay [1] (setting [5]) lay within 100 to 1000 nM. Further, the GI50 in assay [2] was 100 to 1000 nM.

On to `Cc1nc2c(C)cc(-n3cc4cc(N5CCNCC5)cc(F)c4n3)cc2o1` [Compound 119, 6-(7-fluoro-5-piperazin-1-yl-indazol-2-yl)-2,4-dimethyl-1,3-benzoxazole], for which the IC50 in assay [1] (setting [3]) and in assay [1] (setting [4]) was > 10000 nM throughout. Besides, the AC50 in assay [1] (setting [5]) is > 10000 nM. In assay [2], the GI50 is > 10000 nM.

As for `Cn1cc2cc(-c3ccc4nn(C5CCNCC5)cc4c3)cc(F)c2n1` [Compound 105, 7-fluoro-2-methyl-5-[2-(4-piperidyl)indazol-5-yl]indazole], the IC50 in assay [1] (setting [3]) and in assay [1] (setting [4]) was 100 to 1000 nM in each case. Besides, the AC50 in assay [1] (setting [5]) is 1000 to 10000 nM. The GI50 in assay [2] lay within 100 to 1000 nM.

Regarding `Cc1nc2ccc(-c3cc(F)c4nn(C5CCNCC5)cc4c3)cc2s1` [Compound 134, 6-(7-fluoro-2-(piperidin-4-yl)-2H-indazol-5-yl)-2-methylbenzo[d]thiazole], the IC50 in assay [1] (setting [3]) and in assay [1] (setting [4]) was 1000 to 10000 nM in each case. In addition, the AC50 in assay [1] (setting [5]) is > 10000 nM. For the same compound, in assay [2], the GI50 lay in the range of 1000 to 10000 nM.

With `Cc1cn2nc(-c3cc(F)c4nn(C5CCNCC5)cc4c3)cc(C)c2n1` [Compound 122, 6-(7-fluoro-2-(piperidin-4-yl)-2H-indazol-5-yl)-2,8-dimethylimidazo [1,2-b]pyridazine hydrochloride salt], in assay [1] (24 h), the AC50 was < 100 nM and the IC50 is < 100 nM. For the same compound, the IC50 in assay [1] was < 100 nM. In assay [2], the GI50 is < 100 nM.

For the compound `Cc1c(O)c(-c2ccc3nn(C4CCNCC4)cc3n2)cc2cn(C)nc12` [Compound 109, 2,7-dimethyl-5-[2-(4-piperidyl)pyrazolo[4,3-b]pyridin-5-yl]indazol-6-ol], the IC50 in assay [1] (setting [3]) and in assay [1] (setting [4]) was 100 to 1000 nM throughout. In assay [1] (setting [5]), the AC50 is 100 to 1000 nM. Moreover, the GI50 in assay [2] lay in the range of 100 to 1000 nM.

On to `Fc1cc(-c2ccc3cnccc3c2)cc2cn(C3CCNCC3)nc12` [Compound 161, 6-[7-fluoro-2-(4-piperidyl)indazol-5-yl]isoquinoline], for which the IC50 in assay [1] (setting [3]) and in assay [1] (setting [4]) was 1000 to 10000 nM throughout. In assay [1] (setting [5]), the AC50 was in the range of 1000 to 10000 nM. For the same compound, the GI50 in assay [2] lay within 1000 to 10000 nM.

As for `Cc1cc(-n2cc3cc(N4CCNCC4)ccc3n2)cc2cn(C)nc12` [Compound 121, 2,7-dimethyl-5-(5-piperazin-1-ylindazol-2-yl)indazole], the IC50 in assay [1] (setting [3]) and in assay [1] (setting [4]) was > 10000 nM each time. Further, the AC50 in assay [1] (setting [5]) is > 10000 nM. The same compound gave a GI50 in assay [2] of 1000 to 10000 nM.

Take `Cc1cn2nc(-c3cc(F)c4nn([C@@H]5CCNC6(CC6)C5)cc4c3)cc(C)c2n1` [Compound 173]: the IC50 in assay [1] (setting [3]) and in assay [1] (setting [4]) was 100 to 1000 nM in each case. In addition, in assay [1] (setting [5]), the AC50 fell in the range of 100 to 1000 nM. Besides, the GI50 in assay [2] lay within 100 to 1000 nM.
